Measured values as given in patent US20240116988A1, “ANTI-ROR1 MACROCYCLIC PEPTIDES AND COMPOSITIONS” (BRISTOL-MYERS SQUIBB COMPANY, priority 2022, published 2024).
Positions of bridges follow the written chain, without caps; N, C: chain ends. Non-standard residues stand in square brackets, D forms with d. Residues, ends and D or L forms follow the SMILES beside them. NMeF = CN[C@@H](Cc1ccccc1)C(=O)O; AEEA = NCCOCCOCC(=O)O

molecular target: T1, human ROR1 (Homo sapiens, UniProt Q01973); experiment: ROR1 high content cell-based binding assay; settings: 293T cells expressing human ROR1 (Tet-on, doxycycline); inhibition of binding of 5-FAM-labeled probe (Example 1300) at 30 nM; 1 hour at 37° C.; read-out: ROR1 Binding 293T Human HC Cell Based Assay IC50
T1 construct: host or cells: HEK 293T cells, Tet-on system induced with doxycycline
Procedure, shortened: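 Doxycycline-induced 293T cells expressing human ROR1, seeded overnight, were treated with compound plus 5-FAM-labeled ROR1-binding probe peptide (30 nM final) for 1 h at 37 °C. After washing and formaldehyde/Hoechst fixation, cell-bound probe fluorescence was read by high-content imaging.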

T1 sequence (Q01973 30-937): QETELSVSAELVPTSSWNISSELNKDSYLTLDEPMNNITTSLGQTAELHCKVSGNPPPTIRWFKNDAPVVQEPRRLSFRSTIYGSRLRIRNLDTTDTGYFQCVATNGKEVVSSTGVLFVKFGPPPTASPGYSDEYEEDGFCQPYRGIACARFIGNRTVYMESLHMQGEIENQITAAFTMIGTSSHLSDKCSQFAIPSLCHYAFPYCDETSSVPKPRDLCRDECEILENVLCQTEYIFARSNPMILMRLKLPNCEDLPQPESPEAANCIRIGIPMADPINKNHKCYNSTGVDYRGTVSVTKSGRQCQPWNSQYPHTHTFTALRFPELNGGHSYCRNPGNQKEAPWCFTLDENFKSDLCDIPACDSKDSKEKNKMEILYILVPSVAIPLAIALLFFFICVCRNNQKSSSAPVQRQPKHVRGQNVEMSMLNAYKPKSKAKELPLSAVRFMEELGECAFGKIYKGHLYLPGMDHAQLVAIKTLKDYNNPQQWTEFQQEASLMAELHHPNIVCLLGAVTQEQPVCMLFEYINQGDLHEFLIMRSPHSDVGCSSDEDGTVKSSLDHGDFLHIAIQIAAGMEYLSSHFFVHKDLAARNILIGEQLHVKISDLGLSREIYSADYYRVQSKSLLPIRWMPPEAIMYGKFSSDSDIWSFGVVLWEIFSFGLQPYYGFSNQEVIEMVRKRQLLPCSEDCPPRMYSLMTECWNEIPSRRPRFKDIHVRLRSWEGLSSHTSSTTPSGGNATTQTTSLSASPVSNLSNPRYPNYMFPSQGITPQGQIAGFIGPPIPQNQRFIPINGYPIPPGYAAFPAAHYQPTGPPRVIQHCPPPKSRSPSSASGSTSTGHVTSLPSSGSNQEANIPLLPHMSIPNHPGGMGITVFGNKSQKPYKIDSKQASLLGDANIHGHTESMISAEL

IC50 [nM]	SMILES
10	CC(C)C[C@@H]1NC(=O)[C@H](Cc2ccc(O)cc2)NC(=O)[C@H](Cc2ccccc2)NC(=O)CSC[C@@H](C(=O)NCC(N)=O)NC(=O)[C@H](CC(C)C)NC(=O)[C@H](Cc2ccccc2)N(C)C(=O)[C@H](Cc2ccc(O)cc2)NC(=O)[C@H](Cc2c[nH]c3ccccc23)NC(=O)CNC(=O)[C@H](CCC(=O)O)NC(=O)[C@H](Cc2ccc(O)cc2)NC(=O)[C@H](C(C)C)NC1=O [Example 1028] ({CH2CO}-FYLVYEGWY[NMeF]LCG-NH2; thioether N-12)

same assay, conditions: read-out: ROR1 Binding 293T Human HC Cell Based Assay IC50

SMILES	IC50 [nM]
CC(C)C[C@@H]1NC(=O)[C@H](Cc2ccc(O)cc2)NC(=O)[C@H](Cc2cnc[nH]2)NC(=O)CSC[C@@H](C(=O)NCC(N)=O)NC(=O)[C@H](CC(C)C)NC(=O)[C@H](Cc2ccccc2)N(C)C(=O)[C@H](Cc2ccc(O)cc2)NC(=O)[C@H](Cc2c[nH]c3ccccc23)NC(=O)CNC(=O)[C@H](CO)NC(=O)[C@H](Cc2ccc(O)cc2)NC(=O)[C@H](C(C)C)NC1=O [Example 1075] ({CH2CO}-HYLVYSGWY[NMeF]LCG-NH2; thioether N-12)	30
CC(C)C[C@@H]1NC(=O)[C@H](Cc2ccc(O)cc2)NC(=O)[C@H](Cc2ccccc2)NC(=O)CSC[C@@H](C(=O)NCCOCCOCC(=O)N[C@@H](CCCCN)C(N)=O)NC(=O)[C@H](CC(C)C)NC(=O)[C@H](Cc2ccccc2)N(C)C(=O)[C@H](Cc2ccc(O)cc2)NC(=O)[C@H](Cc2c[nH]c3ccccc23)NC(=O)CNC(=O)[C@H](CO)NC(=O)[C@H](Cc2ccc(O)cc2)NC(=O)[C@H](C(C)C)NC1=O [Example 1089] ({CH2CO}-FYLVYSGWY[NMeF]LC[AEEA]K-NH2; thioether N-12)	77
CC(C)C[C@@H]1NC(=O)[C@H](Cc2ccc(O)cc2)NC(=O)[C@H](Cc2ccccc2)NC(=O)CSC[C@@H](C(=O)NCC(N)=O)NC(=O)[C@H](CC(C)C)NC(=O)[C@H](Cc2ccccc2)N(C)C(=O)[C@H](Cc2ccc(O)cc2)NC(=O)[C@H](Cc2c[nH]c3ccccc23)NC(=O)CNC(=O)[C@H](CO)NC(=O)[C@H](Cc2ccc(O)cc2)NC(=O)[C@H](CO)NC1=O [Example 1069] ({CH2CO}-FYLSYSGWY[NMeF]LCG-NH2; thioether N-12)	82

Next, values leading:

IC50 [nM]	SMILES
183	CC(C)C[C@@H]1NC(=O)[C@@H](C)NC(=O)[C@H](Cc2ccccc2)N(C)C(=O)CNC(=O)[C@H](Cc2ccc(O)cc2)NC(=O)[C@H](Cc2ccccc2)NC(=O)CSC[C@@H](C(N)=O)NC(=O)[C@H](Cc2c[nH]c3ccccc23)NC(=O)[C@H](Cc2ccc(O)cc2)NC1=O [Example 1116] ({CH2CO}-FYG[NMeF][dA]LYWC-NH2; thioether N-9)
404	CC(C)C[C@@H]1NC(=O)[C@H](CC(N)=O)NC(=O)[C@H](Cc2ccccc2)N(C)C(=O)CNC(=O)[C@H](Cc2ccccc2)NC(=O)[C@H](Cc2ccccc2)NC(=O)CSC[C@@H](C(N)=O)NC(=O)[C@H](Cc2c[nH]c3ccccc23)NC(=O)[C@H](Cc2ccc(O)cc2)NC1=O [Example 1108] ({CH2CO}-FFG[NMeF]NLYWC-NH2; thioether N-9)
378	CC(C)C[C@@H]1NC(=O)CNC(=O)[C@H](Cc2ccccc2)N(C)C(=O)CNC(=O)[C@H](Cc2ccc(O)cc2)NC(=O)[C@H](Cc2ccccc2)NC(=O)CSC[C@@H](C(N)=O)NC(=O)[C@H](Cc2c[nH]c3ccccc23)NC(=O)[C@H](Cc2ccc(O)cc2)NC1=O [Example 1121] ({CH2CO}-FYG[NMeF]GLYWC-NH2; thioether N-9)
